# Measured values reported in PubChem BioAssay (NCI).
#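 How tested: cells in 96-well plates exposed to compound for 48 hours at five concentrations. Here, GI50 denotes the concentration required for 50% inhibition of growth. TGI marks complete inhibition of growth.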
# Assays:
# Assay in all cases: NCI-60 cell line screen, 48 h
# HCT-116 colon = system: HCT-116 colon
# HT29 colon = system: HT29 colon
# A549 NSCLC = system: A549 NSCLC
# 786-0 renal = system: 786-0 renal
# ACHN renal = system: ACHN renal
# NCI-H23 lung = system: NCI-H23 lung
# OVCAR-8 ovarian = system: OVCAR-8 ovarian
# UACC-257 melanoma = system: UACC-257 melanoma
# SNB-19 CNS = system: SNB-19 CNS
# BT-549 breast = system: BT-549 breast
SMILES,TGI (HCT-116 colon) [µM],TGI (HT29 colon) [µM],TGI (A549 NSCLC) [µM],TGI (786-0 renal) [µM],TGI (ACHN renal) [µM],TGI (NCI-H23 lung) [µM],TGI (OVCAR-8 ovarian) [µM],TGI (UACC-257 melanoma) [µM],TGI (SNB-19 CNS) [µM],GI50 (BT-549 breast) [µM],TGI (BT-549 breast) [µM],GI50 (SNB-19 CNS) [µM],GI50 (HCT-116 colon) [µM],GI50 (786-0 renal) [µM],GI50 (ACHN renal) [µM],GI50 (NCI-H23 lung) [µM],GI50 (OVCAR-8 ovarian) [µM],GI50 (UACC-257 melanoma) [µM],GI50 (HT29 colon) [µM],GI50 (A549 NSCLC) [µM]
CC(=O)O[C@H]1CC[C@@]2(C)C(=CC[C@@H]3C2CC[C@]2(C)Nc4[nH]ncc4CC32)C1 (some centres undefined),29.9,30.6,> 100,> 100,> 100,> 100,> 100,30.8,–,–,–,–,–,–,–,–,–,–,–,–
CCOC(=O)c1cnc2cc3cccccc3n2c1=O,> 100,> 100,> 100,> 100,> 100,> 100,> 100,> 100,> 100,–,–,–,–,–,–,–,–,–,–,–
COc1cc(OC)cc(-c2cncn2-c2ccc(-c3nc4cc(OC)cc(OC)c4s3)cc2)c1,> 100,–,–,> 100,> 100,> 100,> 100,> 100,> 100,3.09,> 100,> 100,4.94,7.6,> 100,10.3,14.5,> 100,–,–
O=CN1CCN(C=S)CC1,> 100,> 100,> 100,> 100,> 100,> 100,> 100,> 100,> 100,–,–,–,–,–,–,–,–,–,–,–
CC1CC2(CCC1OCc1ccccc1)OCCO2 (centres undefined),> 100,> 100,> 100,> 100,–,> 100,> 100,> 100,> 100,–,–,–,–,–,–,–,–,–,–,–
Cc1cc2c(cc1Br)C1(C)CCC(C)C1(C)O2 (centres undefined),29.1,> 100,> 100,66.8,> 100,67.4,> 100,98.8,> 100,–,–,–,–,–,–,–,–,–,–,–
C=CCN(CC=C)CC(C(C)=O)C(c1ccccc1)c1c(O)c2ccccc2oc1=O (centres undefined),> 100,> 100,> 100,> 100,> 100,> 100,> 100,> 100,> 100,–,–,–,–,–,–,–,–,–,–,–
Cc1ccc(Oc2nc3ccccc3cc2-c2nnc(Cn3c(COc4ccccc4)nc4ccccc43)o2)cc1,1.64,4.43,24.2,11.8,–,20.7,7.52,14.9,17,1.77,4.06,3.78,0.431,3.09,–,4.66,2.12,3.28,2.02,8.5
OCc1ccc(Oc2c3ccccc3nc3occc23)cc1,29.4,> 100,> 100,> 100,–,40.3,> 100,74.7,> 100,–,–,39.8,15.9,33.9,–,17.9,28.3,30,28.6,36.5
Cc1c(O)c(=O)ccn1CCO,> 100,> 100,> 100,> 100,> 100,–,> 100,> 100,> 100,–,–,–,–,–,–,–,–,–,–,–
CN1C(=O)C(c2c[nH]c3ccccc23)=C(c2c(-c3c[nH]c4ccccc34)[nH]c3ccccc23)C1=O,11.2,8.36,13.9,14.1,13.9,4.72,11,13.2,18.8,–,–,3.95,3.68,3.44,3.4,1.7,3.2,3.59,2.73,3.83
NC1=NC(c2ccc(F)cc2)C2=C(N1)c1ccc3ccccc3c1OCC2 (centres undefined),–,> 100,> 100,> 100,> 100,> 100,> 100,> 100,> 100,33.6,> 100,16.2,–,79.7,29.7,50.7,14.5,34.2,4.96,18.7
Clc1cc(Cl)cc(Nc2nc3ccccc3nc2-c2cccs2)c1,72,26.9,> 100,31.7,60.3,> 100,27,60.4,–,–,–,–,–,–,–,–,–,–,–,–
N/C(=N\c1nc2ccccc2s1)NC(=O)Nc1cccc2ccccc12,–,> 100,> 100,> 94.8,–,> 28.4,> 100,> 100,> 81.2,2.91,> 100,0.574,–,0.603,–,0.462,0.521,> 100,0.19,0.436
CO/N=C(/COc1c(-c2ccccc2)oc2ccccc2c1=O)c1ccc(F)cc1,> 100,> 100,> 100,64,> 100,> 100,> 100,> 100,–,82.9,> 100,–,39.3,25.1,31.8,> 100,53,> 100,> 100,57.4
COc1ccccc1NC(=O)C1=C(C)NC(C)=C(C(=O)Nc2ccccc2OC)C1c1cccc2c1OCO2,> 100,> 100,> 100,> 100,> 100,> 100,> 100,> 100,> 100,–,–,–,–,–,–,–,–,–,–,–
NC(=O)c1c2c(cc3c(=O)c4ccccc4[nH]c13)CCCC2,> 100,> 100,> 100,> 100,> 100,> 100,> 100,> 100,> 100,–,–,–,–,–,–,–,–,–,–,–
CCOC(=O)[C@H]1Nc2ccc(Cl)cc2[C@H]2c3ccccc3O[C@H]21,> 100,> 100,> 100,> 100,> 100,–,> 100,> 100,> 100,–,–,–,–,–,–,–,–,–,–,–
